Tests used:
Type in all cases: cell-based
M14 = assay: NCI 60 human tumor cell line screen (SRB): M14; conditions: M14, Melanoma, 48 hours, read-out: GI50 values (μM conc.)
Experimental: (§1) The in vitro anticancer activity studies for these chalcone analogues were carried out at the National Cancer Institute, USA.
(§2) The chalcone compounds have been tested at NCI, USA, against sixty human tumor cell lines derived from nine cancer types (leukemia, non-small cell lung cancer, colon cancer, CNS cancer, melanoma cancer, ovarian cancer, renal cancer, prostate cancer and breast cancer). For these compounds results are expressed as growth inhibition (GI50) values as per NCI protocol.
(§3) We describe here the development and implementation of a pilot-scale, in vitro, anticancer drug screen utilizing a panel of 60 human tumor cell lines organized into subpanels representing leukemia, melanoma, and cancers of the lung, colon, kidney, ovary, and central nervous system. The ultimate goal of this disease-oriented screen is to facilitate the discovery of new compounds with potential cell line-specific and/or subpanel-specific antitumor activity. In the current screening protocol, each cell line is inoculated onto microtiter plates, then preincubated for 28 hours. Subsequently, test agents are added in five 10-fold dilutions and the culture is incubated for an additional 48 hours. For each test agent, a dose-response profile is generated. End-point determinations of the cell viability or cell growth are performed by in situ fixation of cells, followed by staining with a protein-binding dye, sulforhodamine B (SRB). The SRB binds to the basic amino acids of cellular macromolecules; the solubilized stain is measured spectrophotometrically to determine relative cell growth or viability in treated and untreated cells.

RXF 393 = assay: NCI 60 human tumor cell line screen (SRB): RXF 393; conditions: RXF 393, Renal, 48 hours, read-out: GI50 values (μM conc.)
Experimental: as §1, §2, §3

MOLT-4 = assay: NCI 60 human tumor cell line screen (SRB): MOLT-4; conditions: MOLT-4, Leukemia, 48 hours, read-out: GI50 values (μM conc.)
Experimental: as §1, §2, §3

UO-31 = assay: NCI 60 human tumor cell line screen (SRB): UO-31; conditions: UO-31, Renal, 48 hours, read-out: GI50 values (μM conc.)
Experimental: as §1, §2, §3

DU-145 = assay: NCI 60 human tumor cell line screen (SRB): DU-145; conditions: DU-145, Prostate, 48 hours, read-out: GI50 values (μM conc.)
Experimental: as §1, §2, §3

CAKI-1 = assay: NCI 60 human tumor cell line screen (SRB): CAKI-1; conditions: CAKI-1, Renal, 48 hours, read-out: GI50 values (μM conc.)
Experimental: as §1, §2, §3

MDA-MB-231/ATCC = assay: NCI 60 human tumor cell line screen (SRB): MDA-MB-231/ATCC; conditions: Breast, 48 hours, read-out: GI50 values (μM conc.)
Experimental: as §1, §2, §3

T-47D = assay: NCI 60 human tumor cell line screen (SRB): T-47D; conditions: T47D, Breast, 48 hours, read-out: GI50 values (μM conc.)
Experimental: as §1, §2, §3

HOP-62 = assay: NCI 60 human tumor cell line screen (SRB): HOP-62; conditions: HOP-62, Non-small cell lung, 48 hours, read-out: GI50 values (μM conc.)
Experimental: as §1, §2, §3

HOP-92 = assay: NCI 60 human tumor cell line screen (SRB): HOP-92; conditions: HOP-92, Non-small cell lung, 48 hours, read-out: GI50 values (μM conc.)
Experimental: as §1, §2, §3

UACC-257 = assay: NCI 60 human tumor cell line screen (SRB): UACC-257; conditions: UACC-257, Melanoma, 48 hours, read-out: GI50 values (μM conc.)
Experimental: as §1, §2, §3

KM12 = assay: NCI 60 human tumor cell line screen (SRB): KM12; conditions: KM12, Colon, 48 hours, read-out: GI50 values (μM conc.)
Experimental: as §1, §2, §3

NCI-H226 = assay: NCI 60 human tumor cell line screen (SRB): NCI-H226; conditions: NCI-H226, Non-small cell lung, 48 hours, read-out: GI50 values (μM conc.)
Experimental: as §1, §2, §3

SR = assay: NCI 60 human tumor cell line screen (SRB): SR; conditions: Leukemia, 48 hours, read-out: GI50 values (μM conc.)
Experimental: as §1, §2, §3

A498 = assay: NCI 60 human tumor cell line screen (SRB): A498; conditions: A498, Renal, 48 hours, read-out: GI50 values (μM conc.)
Experimental: as §1, §2, §3

SK-MEL-28 = assay: NCI 60 human tumor cell line screen (SRB): SK-MEL-28; conditions: SK-MEL-28, Melanoma, 48 hours, read-out: GI50 values (μM conc.)
Experimental: as §1, §2, §3

EKVX = assay: NCI 60 human tumor cell line screen (SRB): EKVX; conditions: Non-small cell lung, 48 hours, read-out: GI50 values (μM conc.)
Experimental: as §1, §2, §3

PC-3 = assay: NCI 60 human tumor cell line screen (SRB): PC-3; conditions: PC-3, Prostate, 48 hours, read-out: GI50 values (μM conc.)
Experimental: as §1, §2, §3

IGROV1 = assay: NCI 60 human tumor cell line screen (SRB): IGROV1; conditions: IGROV-1, IGROV1, Ovarian, 48 hours, read-out: GI50 values (μM conc.)
Experimental: as §1, §2, §3

LOX IMVI = assay: NCI 60 human tumor cell line screen (SRB): LOX IMVI; conditions: Melanoma, 48 hours, read-out: GI50 values (μM conc.)
Experimental: as §1, §2, §3

MDA-MB-468 = assay: NCI 60 human tumor cell line screen (SRB): MDA-MB-468; conditions: MDA-MB-468, Breast, 48 hours, read-out: GI50 values (μM conc.)
Experimental: as §1, §2, §3

SNB-19 = assay: NCI 60 human tumor cell line screen (SRB): SNB-19; conditions: SNB-19, CNS, 48 hours, read-out: GI50 values (μM conc.)
Experimental: as §1, §2, §3

SK-MEL-2 = assay: NCI 60 human tumor cell line screen (SRB): SK-MEL-2; conditions: SK-MEL-2, Melanoma, 48 hours, read-out: GI50 values (μM conc.)
Experimental: as §1, §2, §3

HT29 = assay: NCI 60 human tumor cell line screen (SRB): HT29; conditions: HT-29, HT29, Colon, 48 hours, read-out: GI50 values (μM conc.)
Experimental: as §1, §2, §3

BT-549 = assay: NCI 60 human tumor cell line screen (SRB): BT-549; conditions: BT-549, Breast, 48 hours, read-out: GI50 values (μM conc.)
Experimental: as §1, §2, §3

HCT-15 = assay: NCI 60 human tumor cell line screen (SRB): HCT-15; conditions: HCT-15, Colon, 48 hours, read-out: GI50 values (μM conc.)
Experimental: as §1, §2, §3

OVCAR-4 = assay: NCI 60 human tumor cell line screen (SRB): OVCAR-4; conditions: OVCAR-4, Ovarian, 48 hours, read-out: GI50 values (μM conc.)
Experimental: as §1, §2, §3

SK-OV-3 = assay: NCI 60 human tumor cell line screen (SRB): SK-OV-3; conditions: SK-OV-3, Ovarian, 48 hours, read-out: GI50 values (μM conc.)
Experimental: as §1, §2, §3

NCI-H522 = assay: NCI 60 human tumor cell line screen (SRB): NCI-H522; conditions: NCI-H522, Non-small cell lung, 48 hours, read-out: GI50 values (μM conc.)
Experimental: as §1, §2, §3

SMILES	GI50 (M14)	GI50 (RXF 393)	GI50 (MOLT-4)	GI50 (UO-31)	GI50 (DU-145)	GI50 (CAKI-1)	GI50 (MDA-MB-231/ATCC)	GI50 (T-47D)	GI50 (HOP-62)	GI50 (HOP-92)	GI50 (UACC-257)	GI50 (KM12)	GI50 (NCI-H226)	GI50 (SR)	GI50 (A498)	GI50 (SK-MEL-28)	GI50 (EKVX)	GI50 (PC-3)	GI50 (IGROV1)	GI50 (LOX IMVI)	further results
COc1cc(C(=O)/C=C/c2cccnc2Nc2ccccc2)cc(OC)c1OC [6a, (E)-3-(2-(Phenylamino)pyridin-3-yl)-1-(3,4,5-trimethoxyphenyl)prop-2-en-1-one]	1.5 µM	1.12 µM	2.68 µM	1.19 µM	0.72 µM	1.16 µM	1.4 µM	1.43 µM	0.65 µM	0.39 µM	1.51 µM	0.92 µM	1.23 µM	0.34 µM	1.42 µM	1.58 µM	1.61 µM	1.1 µM	2.37 µM	0.49 µM	GI50 (MDA-MB-468): 0.66 µM; GI50 (SNB-19): 1.48 µM; GI50 (SK-MEL-2): 1.66 µM; GI50 (HT29): 0.51 µM; GI50 (BT-549): 1.26 µM; GI50 (HCT-15): 0.74 µM; GI50 (OVCAR-4): 1.45 µM; GI50 (SK-OV-3): 1.6 µM; GI50 (NCI-H522): 0.49 µM
COc1cc(C(=O)/C=C/c2cccnc2Nc2ccc(Cl)cc2)cc(OC)c1OC [6ax, (E)-3-(2-(4-Chlorophenylamino)pyridin-3-yl)-1-(3,4,5-trimethoxyphenyl)prop-2-en-1-one]	1.75 µM	1.26 µM	2.55 µM	1.32 µM	1.63 µM	1.75 µM	1.49 µM	1.42 µM	1.65 µM	0.51 µM	1.5 µM	1.83 µM	1.16 µM	0.77 µM	1.4 µM	1.72 µM	1.61 µM	1.44 µM	2.24 µM	1.27 µM	GI50 (MDA-MB-468): 1.29 µM; GI50 (SNB-19): 1.52 µM; GI50 (SK-MEL-2): 2.01 µM; GI50 (HT29): 1.43 µM; GI50 (BT-549): 1.5 µM; GI50 (HCT-15): 1.49 µM; GI50 (OVCAR-4): 1.51 µM; GI50 (SK-OV-3): 1.72 µM; GI50 (NCI-H522): 1.46 µM
COc1ccc(Nc2ncccc2/C=C/C(=O)c2cc(OC)c(OC)c(OC)c2)cc1 [6h, (E)-3-(2-(4-Methoxyphenylamino)pyridin-3-yl)-1-(3,4,5-trimethoxyphenyl)prop-2-en-1-one]	1.65 µM	1.49 µM	2.09 µM	1.12 µM	1.59 µM	1.52 µM	1.94 µM	1.67 µM	1.78 µM	1.59 µM	1.53 µM	1.69 µM	1.37 µM	0.46 µM	3.19 µM	1.37 µM	1.8 µM	2.82 µM	2 µM	1.23 µM	GI50 (MDA-MB-468): 1.15 µM; GI50 (SNB-19): 2.14 µM; GI50 (SK-MEL-2): 1.47 µM; GI50 (HT29): 1.6 µM; GI50 (BT-549): 1.58 µM; GI50 (HCT-15): 1.66 µM; GI50 (OVCAR-4): 1.62 µM; GI50 (SK-OV-3): 2.72 µM; GI50 (NCI-H522): 0.36 µM

— US9006451B1, “2-anilinonicotinyl based chalcones useful as potential anticancer agents and process for preparation thereof” (Council of Scientific and Industrial Research, priority 2013, dated 2015)
